Source: patent US7544835B2, “Carboxylic acid derivative and salt thereof” (Eisai R&D Management Co., Ltd., priority 2001, dated 2009)
Read-outs that look alike come from different tables or passages of the source.

System: male db/db mice
Assay: Blood glucose, triglyceride and non-esterified fatty acid reduction in db/db mice
Type: in vivo
Details: Mus musculus, 216 h, oral once a day, day 9 after administration
Description: A chemical suspended in 0.5% methyl cellulose was orally administered via a sonde into male db/db mice (Nippon Charles River, Yokohama, JP) once a day (0.3 to 30 mg/kg/day). Before treatment and after 4 and 9 days treatment, blood was collected through a tail vein after the mice were fasted for 1 hour, respectively. On Day 10, an oral glucose loading test was conducted; in this test, the mice were fasted overnight from the previous day, and in the next morning, 2 g/kg glucose was given to the mice. Plasma glucose, triglycerides (TG), non-esterified fatty acid (NEFA) were measured by using commercial kits, that is, Glucose C-II Test Wako (trade name) (Wako Pure Chemical Industries, Ltd., Tokyo), Determiner L TG II (trade name) (Kyowa Medex, Tokyo) and NEFA C-Test Wako (Wako Pure Chemical Industries, Ltd., Tokyo), respectively.
The determined blood glucose reduction, blood triglyceride reduction and blood non-esterified fatty acid reduction at day 9 after administration are shown in Table 1.

[1] = read-out: Blood free fatty acid reduction (%)
[2] = read-out: Blood sugar reduction (%)
[3] = read-out: Blood triglyceride reduction (%)

CC(C)O[C@@H](Cc1cccc(OC[C@@H](F)COc2ccc(Cl)cc2Cl)c1)C(=O)O [Example 320, 3-{3-[3-(2,4-Dichlorophenoxy)-2 (R)-fluoropropoxy]phenyl}-2(S)-isopropoxypropanoic acid]
inhibition in vivo at 3 mg/kg [1]: 35.4%
inhibition in vivo at 3 mg/kg [2]: 56.3%
inhibition in vivo at 3 mg/kg [3]: 80.3%

CC(C)O[C@@H](Cc1cccc(CNC(=O)OCc2ccc(OC(F)(F)F)cc2)c1)C(=O)O [Ex 335, 2 (S)-Isopropoxy-3-{3-[(4-trifluoromethoxybenzyloxycarbonylamino)methyl]phenyl}-propanoic acid]
inhibition in vivo at 3 mg/kg [1]: 40%
inhibition in vivo at 3 mg/kg [2]: 57.2%
inhibition in vivo at 3 mg/kg [3]: 81.4%

CC(C)O[C@@H](Cc1cccc(CNC(=O)OCc2cccc(OC(F)(F)F)c2)c1)C(=O)O [Ex 344, 3-(3-{[3-Trifluoromethoxybenzyloxycarbonylamino]methyl}phenyl)-2(S)-isopropoxypropanoic acid]
inhibition in vivo at 3 mg/kg [1]: 58.1%
inhibition in vivo at 3 mg/kg [2]: 45.8%
inhibition in vivo at 3 mg/kg [3]: 61.8%

CC(C)OC(Cc1cccc(C#C[C@]2(O)CC[C@@H](C(C)(C)C)CC2)c1)C(=O)O (stereo partly drawn) [Ex 113, trans-3-(3-2-[4-t-Butyl-1-hydroxycyclohexyl]-1-ethynylphenyl)-2-isopropoxypropanoic acid]
inhibition in vivo at 6 mg/kg [1]: 39.5%
inhibition in vivo at 6 mg/kg [2]: 70%
inhibition in vivo at 6 mg/kg [3]: 81.8%

CC(C)O[C@@H](Cc1cccc(OC[C@H](O)COc2ccc(Cl)cc2)c1)C(=O)O [Example 282, 3-(3-{2(R)-Hydroxy-3-[4-chlorophenoxy]propoxy}phenyl)-2(S)-isopropoxypropanoic acid]
inhibition in vivo at 3 mg/kg [1]: 18.4%
inhibition in vivo at 3 mg/kg [2]: 17.9%
inhibition in vivo at 3 mg/kg [3]: 59.7%

C/C(=N\OCc1ccc(C(F)(F)F)cc1)c1cccc(CC(OC(C)C)C(=O)O)c1 (stereo not drawn) [Ex 132, 2-Isopropoxy-3-[3-([4-(trifluoromethyl)benzyl]-oxyethaneimidoyl)phenyl]propanoic acid]
inhibition in vivo at 6 mg/kg [1]: 72.5%
inhibition in vivo at 6 mg/kg [2]: 50.4%
inhibition in vivo at 6 mg/kg [3]: 75.5%

CC(C)OC(Cc1cccc(OCC#Cc2ccc(Cl)cc2Cl)c1)C(=O)O (stereo not drawn) [Ex 100, 2-Isopropoxy-3-(3-[3-(2,4-dichlorophenyl)-2-propynyl]oxyphenyl)propanoic acid]
inhibition in vivo at 6 mg/kg [1]: 60.7%
inhibition in vivo at 6 mg/kg [2]: 65.1%
inhibition in vivo at 6 mg/kg [3]: 79.3%

CC(C)O[C@@H](Cc1cccc(OC[C@H](F)COc2ccc(Cl)cc2C#N)c1)C(=O)O [Example 329, 3-{3-[3-(4-Chloro-2-cyanophenoxy)-2(S)-fluoropropoxy]phenyl}-2(S)-isopropoxypropanoic acid]
inhibition in vivo at 3 mg/kg [1]: 47.5%
inhibition in vivo at 3 mg/kg [2]: 37.7%
inhibition in vivo at 3 mg/kg [3]: 36.8%
